Assay results: the NIST ThermoML archive (doi:10.1016/j.jct.2014.03.005)
“And” between values parts separate entries of the source, which are not always exact repeats. Equal entries are not always repeated. Numbers after ± are expanded uncertainties.

Experiments:
[1] = molar enthalpy of vaporization or sublimation; details: 298.15 K; Crystal; Static calorimetry
[2] = Crystal; for vapor or sublimation pressure: Calculated from knudsen effusion weight loss; for Normal melting temperature: DTA
[3] = Molar enthalpy of transition or fusion; details: Crystal; DSC

Nc1ccc2c(c1)Cc1ccccc1-2 [2-aminofluorene]
Details	Molar enthalpy of transition or fusion [kcal/mol]	Normal melting temperature [°C]	molar enthalpy [kcal/mol]
[1]	–	–	26.4 ± 0.43
[2]	–	127.79 ± 0.39	–
[3]	5.69 ± 0.129	–	–

[2]
Details	vapor or sublimation pressure
345.16 K	0.000121 ± 1.3e-05 kPa and 0.00012 ± 1.3e-05 kPa and 0.000118 ± 1.3e-05 kPa
347.13 K	0.000155 ± 1.6e-05 kPa and 0.000154 ± 1.6e-05 kPa and 0.000148 ± 1.6e-05 kPa
349.17 K	0.000189 ± 2e-05 kPa and 0.000182 ± 1.9e-05 kPa and 0.00019 ± 2e-05 kPa
351.15 K	0.000238 ± 2.5e-05 kPa and 0.000226 ± 2.4e-05 kPa
353.1 K	0.000286 ± 3e-05 kPa and 0.000283 ± 3e-05 kPa and 0.000291 ± 3.1e-05 kPa
355.17 K	0.00035 ± 3.7e-05 kPa and 0.000348 ± 3.7e-05 kPa and 0.000362 ± 3.8e-05 kPa
357.13 K	0.000447 ± 4.7e-05 kPa and 0.000436 ± 4.6e-05 kPa and 0.000432 ± 4.6e-05 kPa
359.16 K	0.000546 ± 5.8e-05 kPa and 0.000522 ± 5.5e-05 kPa and 0.000551 ± 5.8e-05 kPa
361.13 K	0.000675 ± 7.2e-05 kPa and 0.000647 ± 6.9e-05 kPa and 0.000664 ± 7e-05 kPa
363.1 K	0.000811 ± 8.6e-05 kPa and 0.000789 ± 8.4e-05 kPa and 0.000805 ± 8.5e-05 kPa
365.09 K	0.000994 ± 0.00011 kPa and 0.000997 ± 0.00011 kPa and 0.000981 ± 0.0001 kPa

O=[N+]([O-])c1ccc2c(c1)Cc1ccccc1-2 [2-nitro-9H-fluorene]
Details	Molar enthalpy of transition or fusion [kcal/mol]	Normal melting temperature [°C]	molar enthalpy [kcal/mol]
[1]	–	–	27.3 ± 0.598
[2]	–	156.74 ± 0.71	–
[3]	5.92 ± 0.134	–	–

[2]
Details	vapor or sublimation pressure
357.16 K	9e-05 ± 1e-05 kPa and 9.2e-05 ± 1e-05 kPa
359.13 K	0.000115 ± 1.2e-05 kPa and 0.000114 ± 1.2e-05 kPa and 0.000111 ± 1.2e-05 kPa
361.11 K	0.000141 ± 1.5e-05 kPa and 0.000139 ± 1.5e-05 kPa and 0.00014 ± 1.5e-05 kPa
363.16 K	0.000172 ± 1.8e-05 kPa and 0.00017 ± 1.8e-05 kPa
365.14 K	0.000217 ± 2.3e-05 kPa and 0.000209 ± 2.2e-05 kPa and 0.000213 ± 2.3e-05 kPa
367.11 K	0.000261 ± 2.8e-05 kPa and 0.000258 ± 2.7e-05 kPa
369.16 K	0.000315 ± 3.3e-05 kPa and 0.000322 ± 3.4e-05 kPa
371.13 K	0.000398 ± 4.2e-05 kPa and 0.000377 ± 4e-05 kPa and 0.000392 ± 4.2e-05 kPa
373.1 K	0.000478 ± 5.1e-05 kPa and 0.000472 ± 5e-05 kPa and 0.000474 ± 5e-05 kPa
375.15 K	0.000565 ± 6e-05 kPa and 0.000561 ± 6e-05 kPa and 0.000578 ± 6.1e-05 kPa
377.14 K	0.000696 ± 7.4e-05 kPa and 0.000707 ± 7.5e-05 kPa and 0.000678 ± 7.2e-05 kPa
379.12 K	0.000839 ± 8.9e-05 kPa and 0.000844 ± 9e-05 kPa and 0.000829 ± 8.8e-05 kPa
